Experimental data taken from patent US5422349A, “Morpholino-oxazinyl-terminated alkylamino ethynyl alanine amino diol compounds for treatment of hypertension” (G. D. Seale & Co., priority 1992, dated 1995).
Non-standard residues stand in square brackets, D forms with d. Residues, ends and D or L forms follow the SMILES beside them. *: point of attachment. Sta = CC(C)C[C@H](N)[C@@H](O)CC(=O)O; Isovaleryl = CC(C)CC(=O)*

Columns and labels:
hog renin = conditions: after injection of hog renin into nephrectomized rats; cited from earlier work
cathepsin D = conditions: cited from earlier work
renin = conditions: cited from earlier work
pepsin = conditions: cited from earlier work
human renin = target: T1, human renin (Homo sapiens, UniProt P00797); experiment: Human Renin Inhibition in vitro (angiotensin I produced, by radioimmunoassay); type: biochemical; conditions: pH 7.4, 37° C., two hours, human plasma
T1 construct: purchased National Institute for Biological Standards, London
T1 sequence (P00797 67-406): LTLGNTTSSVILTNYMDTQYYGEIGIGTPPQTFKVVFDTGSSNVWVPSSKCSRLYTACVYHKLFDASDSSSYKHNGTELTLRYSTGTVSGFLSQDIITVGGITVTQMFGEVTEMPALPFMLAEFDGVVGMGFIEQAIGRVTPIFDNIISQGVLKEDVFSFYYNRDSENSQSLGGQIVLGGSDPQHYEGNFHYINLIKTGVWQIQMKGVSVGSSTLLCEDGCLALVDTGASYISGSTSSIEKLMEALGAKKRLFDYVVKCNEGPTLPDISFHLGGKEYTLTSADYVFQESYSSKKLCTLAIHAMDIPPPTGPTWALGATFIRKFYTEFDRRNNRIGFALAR
Protocol: Compounds of Formula I were evaluated as inhibitors of human renin in an in Vitro assay, as follows: This human renin inhibition test has been previously described in detail [Papaioannou et al., Clinical and Experimental Hypertension, A7(9), 1243-1257 (1985)]. Human renin was obtained from the National Institute for Biological Standards, London. An incubation mixture was prepared containing the following components: in a total volume of 0.25 mL: 100 mM Tris-acetate buffer at pH 7.4, 25×10^-6 Goldblatt units of renin, 0.05 mL of plasma from human volunteers taking oral contraceptives, 6.0 mM Na-EDTA, 2.4 mM phenylmethyl sulfonyl fluoride, 1.5 mM 8-hydroxyquinoline, 0.4 mg/mL bovine serum albumin (BSA), and 0.024 mg/mL neomycin sulfate. This mixture was incubated for two hours at 37° C. in the presence or absence of renin inhibitors. The produced angiotensin I was determined by radioimmunoassay (New England Nuclear kit). Test compounds to be assayed were dissolved in DMSO and diluted with 100 mM Tris-acetate buffer at pH 7.4 containing 0.5% BSA to the appropriate concentration. The final concentration of organic solvent in the reaction mixture was less than 1%. Control incubations at 37° C. were used to correct for effects of organic solvent on renin activity.

IC50 (human renin) [nM] | Structure (SMILES) | blood pressure (hog renin) | inhibitor of cathepsin D (cathepsin D) | inhibitor of renin (renin) | inhibitor of pepsin (pepsin)
 | CC(C)CC(=O)N[C@H](C(=O)N[C@H](C(=O)N[C@@H](CC(C)C)[C@@H](O)CC(=O)N[C@@H](C)C(=O)N[C@@H](CC(C)C)[C@@H](O)CC(=O)O)C(C)C)C(C)C [pepstatin] (Isovaleryl-VV[Sta]A[Sta]-OH) | reduce blood pressure in vivo | inhibitor | inhibitor | inhibitor
1 | C#CC[C@H](NC(=O)[C@@H](CC(=O)N(C)CCN1CCOCC1)Cc1ccccc1)C(=O)N[C@@H](CC1CCCCC1)[C@@H](O)[C@@H](O)CC(C)C [Example 1, N^1-[1R*-[[[1S,1R*-(cyclohexylmethyl)-2S*,3R* -dihydroxy-5-methylhexyl]amino]carbonyl]-3-butynyl]-N^4-methyl-N^4-[2-(4-morpholinyl)ethyl]-2S*-(phenylmethyl)butanediamide] |  |  |  | 
